The record followed here is patent publication US9556150B2, “Inhibitors of bruton's tyrosine kinase” (Hoffmann-La Roche Inc., priority 2013, dated 2017).

In this assay the target is Bruton's Tyrosine Kinase (BTK), inactivated state (Homo sapiens (Human), UniProt Q06187). Briefly: Bruton's Tyrosine Kinase (BTK) Inhibition TR-FRET (Time Resolved FRET) competition assay. The following applies: TR-FRET competition with Kinase Tracer 178, BTK-Eu complex, 18-24 h at 14° C. The format is binding. Here is the method:
Bruton's Tyrosine Kinase (BTK) Inhibition TR-FRET (Time Resolved FRET) Assay
This BTK competition assay measures compound potency (IC50) for the inactivated state of Bruton's Tyrosine Kinase using FRET (Förster/Fluorescence Resonance Energy Transfer) technology. The BTK-Eu complex was incubated on ice one hour prior to use at a starting concentration of 50 nM BTK-Bioease™: 10 nM Eu-streptavidin (Perkin-Elmer Catalog#AD0062). The assay buffer consisted of 20 mM HEPES (pH 7.15), 0.1 mM DTT, 10 mM MgCl2, 0.5 mg/ml BSA with 3% Kinase Stabilizer (Fremont Biosolutions, Catalog #STB-K02). After 1 h, the reaction mixture from above was diluted 10 fold in assay buffer to make 5 nM BTK: 1 nM Eu-Streptavidin complex (donor fluorophore). 18 μl of a mixture of 0.11 nM BTK-Eu and 0.11 nM Kinase Tracer 178 (Invitrogen, Catalog #PV5593,) with BTK-Eu alone as no negative control, was then dispensed into 384-well flat bottom plates (Greiner, 784076). Compounds to be tested in assay were prepared as 10× concentrations and serial dilution in half-log increments was performed in DMSO so as to generate 10 point curves. To initiate the FRET reaction, compounds prepared as 10× stock in DMSO was added to the plates and the plates were incubated 18-24 h at 14° C.
After the incubation the plates were read on a BMG Pherastar Fluorescent plate reader (or equivalent) and used to measure the emission energy from the europium donor fluorophore (620 nm emission) and the FRET (665 nm emission). The negative control well values were averaged to obtain the mean minimum. The positive “no inhibitor” control wells were averaged to obtain the mean maximum. Percent of maximal FRET was calculated using following equation: % max FRET=100×[(FSR cmpd−FSR mean min)/(FSR mean max−FSR mean min)]
where FSR=FRET Signal ratio. % Max FRET curves were plotted in Activity Base (Excel) and the IC50(%), hill slope, z′ and % CV were determined. The mean IC50 and standard deviation will be derived from duplicate curves (singlet inhibition curves from two independent dilutions) using Microsoft Excel.
Representative compound data for this assay are listed below in Table II.

Each structure is given as a SMILES string.

Chain of Bruton's Tyrosine Kinase (BTK), inactivated state (Q06187 whole entry): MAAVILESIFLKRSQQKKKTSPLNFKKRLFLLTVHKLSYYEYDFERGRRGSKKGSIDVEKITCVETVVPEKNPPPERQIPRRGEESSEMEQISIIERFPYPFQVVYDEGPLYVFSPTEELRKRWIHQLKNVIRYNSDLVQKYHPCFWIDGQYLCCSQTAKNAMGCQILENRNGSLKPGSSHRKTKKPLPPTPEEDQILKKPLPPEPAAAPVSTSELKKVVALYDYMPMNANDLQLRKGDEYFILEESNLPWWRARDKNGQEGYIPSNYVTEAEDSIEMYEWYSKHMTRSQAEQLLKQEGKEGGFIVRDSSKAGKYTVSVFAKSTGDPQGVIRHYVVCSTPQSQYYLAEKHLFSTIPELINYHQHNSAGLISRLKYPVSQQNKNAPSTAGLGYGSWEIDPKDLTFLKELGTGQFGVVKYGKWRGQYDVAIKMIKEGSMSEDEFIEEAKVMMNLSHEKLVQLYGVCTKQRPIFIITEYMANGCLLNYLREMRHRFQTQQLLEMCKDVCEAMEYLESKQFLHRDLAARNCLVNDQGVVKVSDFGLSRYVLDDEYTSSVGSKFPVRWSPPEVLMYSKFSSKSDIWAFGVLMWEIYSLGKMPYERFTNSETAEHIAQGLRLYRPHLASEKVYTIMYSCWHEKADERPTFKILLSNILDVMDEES

Regarding `Nc1c(C(=O)c2cc3cc(C(=O)N4CCOCC4)ccc3[nH]2)cnn1-c1ccc(Oc2ccccc2)cc1` [Example I-1, [5-Amino-1-(4-phenoxy-phenyl)-1H-pyrazol-4-yl]-[5-(morpholine-4-carbonyl)-1H-indol-2-yl]-methanone], the IC50 stood at 0.0068 µM.
The same measure for `Cc1cc(Oc2ccccc2F)ccc1-n1ncc(C(=O)c2cc3cc(C(=O)N4CCOCC4)ccc3[nH]2)c1N` [Example I-2, {5-Amino-1-[4-(2-fluoro-phenoxy)-2-methyl-phenyl]-1H-pyrazol-4-yl}-[5-(morpholine-4-carbonyl)-1H-indol-2-yl]-methanone]: 0.0046 µM; for `Cc1cc(Oc2ccccc2)ncc1-n1ncc(C(=O)c2cc3cc(C(=O)N4CCOCC4)ccc3[nH]2)c1N` [Example I-3, [5-Amino-1-(4-methyl-6-phenoxy-pyridin-3-yl)-1H-pyrazol-4-yl]-[5-(morpholine-4-carbonyl)-1H-indol-2-yl]-methanone]: 0.025 µM; for `Nc1c(C(=O)c2cc3cc(C(=O)N4CCOCC4)ccc3[nH]2)cnn1-c1ccc(Oc2ccccc2)c(F)c1` [Example I-4, [5-Amino-1-(3-fluoro-4-phenoxy-phenyl)-1H-pyrazol-4-yl]-[5-(morpholine-4-carbonyl)-1H-indol-2-yl]-methanone]: 0.012 µM.
Consider `Cc1cc(Oc2cccc(F)c2F)ccc1-n1ncc(C(=O)c2cc3cc(C(=O)N4CCOCC4)ccc3[nH]2)c1N` [Example I-5], for which the IC50 was determined as 0.0023 µM.
In turn, `Cc1cc(Oc2ccccc2)c(F)cc1-n1ncc(C(=O)c2cc3cc(C(=O)N4CCOCC4)ccc3[nH]2)c1N` [Example I-6, {2-[5-Amino-1-(5-fluoro-2-methyl-4-phenoxy-phenyl)-1H-pyrazole-4-carbonyl]-1H-indol-5-yl}-morpholin-4-yl-methanone] gave an IC50 of 0.043 µM.
As for `Cc1cc(Oc2ccccc2)ccc1-n1ncc(C(=O)c2cc3cc(C(=O)N4CCOCC4)ccc3[nH]2)c1N` [Example I-7, {2-[5-Amino-1-(2-methyl-4-phenoxy-phenyl)-1H-pyrazole-4-carbonyl]-1H-indol-5-yl}-morpholin-4-yl-methanone], the IC50 was 0.0026 µM.
The same measure for `Nc1c(C(=O)c2cc3cc(C(=O)N4CCOCC4)ccc3[nH]2)cnn1-c1ccc(Oc2ccccc2)cc1F` [Example I-8, [5-Amino-1-(2-fluoro-4-phenoxy-phenyl)-1H-pyrazol-4-yl]-[5-(morpholine-4-carbonyl)-1H-indol-2-yl]-methanone]: 0.0144 µM; for `Nc1c(C(=O)c2cc3cc(C(=O)N4CCOCC4)ccc3[nH]2)cnn1-c1ccc(Oc2ccccc2F)nc1` [Example I-9, {5-Amino-1-[6-(2-fluoro-phenoxy)-pyridin-3-yl]-1H-pyrazol-4-yl}-[5-(morpholine-4-carbonyl)-1H-indol-2-yl]-methanone]: 0.22 µM; for `Nc1c(C(=O)c2cc3cc(C(=O)N4CCOCC4)ccc3[nH]2)cnn1-c1ccc(Oc2cccc(F)c2F)nc1` [Example I-10, {5-Amino-1-[6-(2,3-difluoro-phenoxy)-pyridin-3-yl]-1H-pyrazol-4-yl}-[5-(morpholine-4-carbonyl)-1H-indol-2-yl]-methanone]: 0.18 µM.
Under `Cc1cc(Oc2ccccn2)ccc1-n1ncc(C(=O)c2cc3cc(C(=O)N4CCOCC4)ccc3[nH]2)c1N` [Example I-11, {5-Amino-1-[2-methyl-4-(pyridin-2-yloxy)-phenyl]-1H-pyrazol-4-yl}-[5-(morpholine-4-carbonyl)-1H-indol-2-yl]-methanone] stands 0.2 µM; under `Nc1c(C(=O)c2cc3cc(C(=O)N4CCOCC4)ccc3[nH]2)cnn1-c1ccc(Oc2cccc(F)c2F)cc1` [Example I-12, {5-Amino-1-[4-(2,3-difluoro-phenoxy)-phenyl]-1H-pyrazol-4-yl}-[5-(morpholine-4-carbonyl)-1H-indol-2-yl]-methanone], 0.013 µM; under `Nc1c(C(=O)c2cc3cc(C(=O)N4CCOCC4)ccc3[nH]2)cnn1-c1ccc(Oc2cc(F)ccc2F)nc1` [Example I-13, {5-Amino-1-[6-(2,5-difluoro-phenoxy)-pyridin-3-yl]-1H-pyrazol-4-yl}-[5-(morpholine-4-carbonyl)-1H-indol-2-yl]-methanone], 0.53 µM.
Under `Nc1c(C(=O)c2cc3cc(C(=O)N4CCOCC4)ccc3[nH]2)cnn1-c1ccc(Oc2ccccc2)cc1Cl` [Example I-14, [5-Amino-1-(2-chloro-4-phenoxy-phenyl)-1H-pyrazol-4-yl]-[5-(morpholine-4-carbonyl)-1H-indol-2-yl]-methanone] stands 0.00046 µM; under `Nc1c(C(=O)c2cc3cc(C(=O)N4CCOCC4)ccc3[nH]2)cnn1-c1ccc(Oc2ccccc2F)cc1Cl` [Example I-15, {5-Amino-1-[2-chloro-4-(2-fluoro-phenoxy)-phenyl]-1H-pyrazol-4-yl}-[5-(morpholine-4-carbonyl)-1H-indol-2-yl]-methanone], 0.00082 µM; under `Cc1cc(Oc2cccc(Cl)c2)ccc1-n1ncc(C(=O)c2cc3cc(C(=O)N4CCOCC4)ccc3[nH]2)c1N` [Example I-16, (2-{5-Amino-1-[4-(3-chloro-phenoxy)-2-methyl-phenyl]-1H-pyrazole-4-carbonyl}-1H-indol-5-yl)-morpholin-4-yl-methanone], 0.0036 µM.
For `Cc1cc(Oc2cccc(Br)c2)ccc1-n1ncc(C(=O)c2cc3cc(C(=O)N4CCOCC4)ccc3[nH]2)c1N` [Example I-17, (2-{5-Amino-1-[4-(3-bromo-phenoxy)-2-methyl-phenyl]-1H-pyrazole-4-carbonyl}-1H-indol-5-yl)-morpholin-4-yl-methanone], the IC50 worked out at 0.0035 µM.
The same measure for `Cc1cc(Oc2cccc(C#N)c2)ccc1-n1ncc(C(=O)c2cc3cc(C(=O)N4CCOCC4)ccc3[nH]2)c1N` [Example I-18, 3-(4-{5-Amino-4-[5-(morpholine-4-carbonyl)-1H-indole-2-carbonyl]-pyrazol-1-yl}-3-methyl-phenoxy)-benzonitrile]: 0.0052 µM; for `Cc1cc(Oc2cccc(C(C)(C)C)c2)ccc1-n1ncc(C(=O)c2cc3cc(C(=O)N4CCOCC4)ccc3[nH]2)c1N` [Example I-19, {5-Amino-1-[4-(3-tert-butyl-phenoxy)-2-methyl-phenyl]-1H-pyrazol-4-yl}-[5-(morpholine-4-carbonyl)-1H-indol-2-yl]-methanone]: 0.0068 µM; for `COc1ccc(-n2ncc(C(=O)c3cc4cc(C(=O)N5CCOCC5)ccc4[nH]3)c2N)c(C)c1` [Example I-20, [5-Amino-1-(4-methoxy-2-methyl-phenyl)-1H-pyrazol-4-yl]-[5-(morpholine-4-carbonyl)-1H-indol-2-yl]-methanone]: 0.15 µM.
Under `N#Cc1cc(Oc2cccc(F)c2F)ccc1-n1ncc(C(=O)c2cc3cc(C(=O)N4CCOCC4)ccc3[nH]2)c1N` [Example I-21, 2-{5-Amino-4-[5-(morpholine-4-carbonyl)-1H-indole-2-carbonyl]-pyrazol-1-yl}-5-(2,3-difluoro-phenoxy)-benzonitrile] stands greater than 100 µM; under `Nc1c(C(=O)c2cc3cc(C(=O)N4CCOCC4)ccc3[nH]2)cnn1-c1ccc(Oc2cccc(F)c2F)cc1Br` [Example I-22, {5-Amino-1-[2-bromo-4-(2,3-difluoro-phenoxy)-phenyl]-1H-pyrazol-4-yl}-[5-(morpholine-4-carbonyl)-1H-indol-2-yl]-methanone], 0.0013 µM.
In the case of `Cc1cc(Oc2cccc(F)c2F)cc(C)c1-n1ncc(C(=O)c2cc3cc(C(=O)N4CCOCC4)ccc3[nH]2)c1N` [Example I-24, {5-Amino-1-[4-(2,3-difluoro-phenoxy)-2,6-dimethyl-phenyl]-1H-pyrazol-4-yl}-[5-(morpholine-4-carbonyl)-1H-indol-2-yl]-methanone], the IC50 came out at 0.035 µM.
Under `COc1nc(Oc2cccc(F)c2F)ccc1-n1ncc(C(=O)c2cc3cc(C(=O)N4CCOCC4)ccc3[nH]2)c1N` [Example I-25, {5-Amino-1-[6-(2,3-difluoro-phenoxy)-2-methoxy-pyridin-3-yl]-1H-pyrazol-4-yl}-[5-(morpholine-4-carbonyl)-1H-indol-2-yl]-methanone] stands 0.074 µM; under `Cc1cc(Oc2cccc(F)c2F)ccc1-n1ncc(C(=O)c2cc3cc(C(=O)O)ccc3[nH]2)c1N` [Example I-26, 2-{5-Amino-1-[4-(2,3-difluoro-phenoxy)-2-methyl-phenyl]-1H-pyrazole-4-carbonyl}-1H-indole-5-carboxylic acid], 0.014 µM; under `Cc1cc(OCc2ccc(Cl)cc2)ccc1-n1ncc(C(=O)c2cc3cc(C(=O)N4CCOCC4)ccc3[nH]2)c1N` [Example I-27, {5-Amino-1-[4-(4-chloro-benzyloxy)-2-methyl-phenyl]-1H-pyrazol-4-yl}-[5-(morpholine-4-carbonyl)-1H-indol-2-yl]-methanone], 0.0037 µM.
